Converted amounts (≈) assume the structure as drawn.
What was measured:
[1] = tested on: Staphylococcus aureus H1; assay: MIC / antibiotic susceptibility; format: cell-based; note: key: R: strain resistant to antibiotic concerned; S: strain sensitive to antibiotic concerned; L strain with intermediate resistance to antibiotic concerned
[2] = tested on: Staphylococcus aureus H3; assay: MIC / antibiotic susceptibility; format: cell-based; note: key: R: strain resistant to antibiotic concerned; S: strain sensitive to antibiotic concerned; L strain with intermediate resistance to antibiotic concerned
[3] = tested on: Staphylococcus aureus H4; assay: MIC / antibiotic susceptibility; format: cell-based; note: key: R: strain resistant to antibiotic concerned; S: strain sensitive to antibiotic concerned; L strain with intermediate resistance to antibiotic concerned
[4] = tested on: Staphylococcus aureus H7; assay: MIC / antibiotic susceptibility; format: cell-based
[5] = tested on: Staphylococcus aureus H9; assay: MIC / antibiotic susceptibility; format: cell-based
[6] = tested on: Staphylococcus aureus H16; format: cell-based
[7] = tested on: Staphylococcus aureus H18; assay: MIC / antibiotic susceptibility; format: cell-based; note: key: R: strain resistant to antibiotic concerned; S: strain sensitive to antibiotic concerned; L strain with intermediate resistance to antibiotic concerned
[8] = tested on: C. difficile; conditions: molecules in current use or in clinical trials (phase III); cited from earlier work
[9] = tested on: C. difficile; conditions: cited from earlier work

Compound: NCC[C@H](O)C(=O)N[C@@H]1C[C@H](N)[C@@H](O[C@H]2O[C@H](CN)[C@@H](O)[C@H](O)[C@H]2O)[C@H](O)[C@H]1O[C@H]1O[C@H](CO)[C@@H](O)[C@H](N)[C@H]1O [Amikacin]
- Susceptibility of strain to antibiotic [1]: S
- Susceptibility of strain to antibiotic [2]: S
- Susceptibility of strain to antibiotic [3]: R
- Susceptibility of strain to antibiotic [4]: S
- Susceptibility of strain to antibiotic [5]: S
- Susceptibility of strain to antibiotic [6]: R
- Susceptibility of strain to antibiotic [7]: R

Compound: CC1(C)S[C@@H]2[C@H](NC(=O)[C@H](N)c3ccc(O)cc3)C(=O)N2[C@H]1C(=O)O [Amoxicillin]
- Susceptibility of strain to antibiotic [1]: R
- Susceptibility of strain to antibiotic [2]: R
- Susceptibility of strain to antibiotic [3]: R
- Susceptibility of strain to antibiotic [4]: R
- Susceptibility of strain to antibiotic [5]: R
- Susceptibility of strain to antibiotic [6]: R
- Susceptibility of strain to antibiotic [7]: R

Compound: Cc1nnc(SCC2=C(C(=O)O)N3C(=O)[C@@H](NC(=O)Cn4cnnn4)[C@H]3SC2)s1 [Cefazoline]
- Susceptibility of strain to antibiotic [1]: S
- Susceptibility of strain to antibiotic [2]: S
- Susceptibility of strain to antibiotic [3]: R
- Susceptibility of strain to antibiotic [4]: S
- Susceptibility of strain to antibiotic [5]: S
- Susceptibility of strain to antibiotic [6]: R
- Susceptibility of strain to antibiotic [7]: R

Compound: C[C@H]1c2cccc(O)c2C(O)=C2C(=O)[C@]3(O)C(O)=C(C(N)=O)C(=O)[C@@H](N(C)C)[C@@H]3[C@@H](O)[C@@H]21 [Doxycyclin]
- Susceptibility of strain to antibiotic [1]: S
- Susceptibility of strain to antibiotic [2]: S
- Susceptibility of strain to antibiotic [3]: S
- Susceptibility of strain to antibiotic [4]: S
- Susceptibility of strain to antibiotic [5]: S
- Susceptibility of strain to antibiotic [7]: S

Compound: CC[C@H]1OC(=O)[C@H](C)[C@@H](O[C@H]2C[C@@](C)(OC)[C@@H](O)[C@H](C)O2)[C@H](C)[C@@H](O[C@@H]2O[C@H](C)C[C@H](N(C)C)[C@H]2O)[C@](C)(O)C[C@@H](C)C(=O)[C@H](C)[C@@H](O)[C@]1(C)O [Erythromycin]
- Susceptibility of strain to antibiotic [1]: S
- Susceptibility of strain to antibiotic [2]: R
- Susceptibility of strain to antibiotic [3]: S
- Susceptibility of strain to antibiotic [4]: R
- Susceptibility of strain to antibiotic [5]: R
- Susceptibility of strain to antibiotic [6]: R
- Susceptibility of strain to antibiotic [7]: R

Compound: C[C@@H]1O[C@@H]1P(=O)(O)O [Fosfomycin]
- Susceptibility of strain to antibiotic [1]: S
- Susceptibility of strain to antibiotic [2]: S
- Susceptibility of strain to antibiotic [3]: S
- Susceptibility of strain to antibiotic [4]: S
- Susceptibility of strain to antibiotic [5]: S
- Susceptibility of strain to antibiotic [6]: R
- Susceptibility of strain to antibiotic [7]: R

Compound: CC(=O)O[C@H]1C[C@@]2(C)[C@@H](C[C@@H](O)[C@H]3[C@@]4(C)CC[C@@H](O)[C@@H](C)[C@@H]4CC[C@@]32C)/C1=C(\CCC=C(C)C)C(=O)O [Fusidic acid]
- Susceptibility of strain to antibiotic [1]: S
- Susceptibility of strain to antibiotic [2]: S
- Susceptibility of strain to antibiotic [3]: S
- Susceptibility of strain to antibiotic [4]: S
- Susceptibility of strain to antibiotic [5]: R
- Susceptibility of strain to antibiotic [6]: S
- Susceptibility of strain to antibiotic [7]: S

Compound: CCc1c(Cl)c(O)c(Cl)c(O)c1C(=O)O[C@H]1[C@H](O)[C@H](OC)[C@H](OC/C2=C\C=C\C[C@H](O)/C(C)=C/[C@H](CC)[C@@H](O[C@@H]3OC(C)(C)[C@@H](OC(=O)C(C)C)[C@H](O)[C@@H]3O)/C(C)=C/C(C)=C/C[C@@H]([C@@H](C)O)OC2=O)O[C@@H]1C [Lipiarmycin]
- MIC on C. difficile [8]: 0.06 to 2 µg/mL

Compound: Cc1ncc([N+](=O)[O-])n1CCO [Metronidazole]
- MIC on C. difficile [8]: 1 µg/mL (≈ 5.84 µM)
- Patients for whom the drug is inactive ([9]; first intention treatment of C. difficile infection): 25%
- Relapses ([9]; treatment of C. difficile infection): 25 % of cases

Compound: CC(=O)Oc1ccccc1C(=O)Nc1ncc([N+](=O)[O-])s1 [Nitazoxanide]
- MIC on C. difficile [8]: 0.1 µg/mL (≈ 0.325 µM)

Compound: CCn1cc(C(=O)O)c(=O)c2cc(F)c(N3CCNCC3)cc21 [Norfloxacin]
- Susceptibility of strain to antibiotic [1]: S
- Susceptibility of strain to antibiotic [2]: R
- Susceptibility of strain to antibiotic [3]: R
- Susceptibility of strain to antibiotic [4]: R
- Susceptibility of strain to antibiotic [5]: S
- Susceptibility of strain to antibiotic [6]: R
- Susceptibility of strain to antibiotic [7]: R

Compound: CC1COc2c(N3CCN(C)CC3)c(F)cc3c(=O)c(C(=O)O)cn1c23 (stereo not drawn) [Ofloxacin]
- Susceptibility of strain to antibiotic [1]: S
- Susceptibility of strain to antibiotic [2]: R
- Susceptibility of strain to antibiotic [3]: R
- Susceptibility of strain to antibiotic [4]: R
- Susceptibility of strain to antibiotic [5]: S
- Susceptibility of strain to antibiotic [6]: R
- Susceptibility of strain to antibiotic [7]: R

Compound: Cc1onc(-c2ccccc2)c1C(=O)N[C@@H]1C(=O)N2[C@@H]1SC(C)(C)[C@@H]2C(=O)O [Oxacillin]
- Susceptibility of strain to antibiotic [1]: S
- Susceptibility of strain to antibiotic [2]: S
- Susceptibility of strain to antibiotic [3]: R
- Susceptibility of strain to antibiotic [4]: S
- Susceptibility of strain to antibiotic [5]: S
- Susceptibility of strain to antibiotic [6]: R
- Susceptibility of strain to antibiotic [7]: R

Compound: CC1(C)S[C@@H]2[C@H](NC(=O)Cc3ccccc3)C(=O)N2[C@H]1C(=O)O [Penicillin G]
- Susceptibility of strain to antibiotic [1]: R
- Susceptibility of strain to antibiotic [2]: R
- Susceptibility of strain to antibiotic [3]: R
- Susceptibility of strain to antibiotic [4]: R
- Susceptibility of strain to antibiotic [5]: R
- Susceptibility of strain to antibiotic [6]: R
- Susceptibility of strain to antibiotic [7]: R

Compound: CCN1CCN(C(=O)N[C@@H](C(=O)N[C@@H]2C(=O)N3[C@@H]2SC(C)(C)[C@@H]3C(=O)O)c2ccccc2)C(=O)C1=O [Piperacillin]
- Susceptibility of strain to antibiotic [1]: R
- Susceptibility of strain to antibiotic [2]: R
- Susceptibility of strain to antibiotic [3]: R
- Susceptibility of strain to antibiotic [4]: R
- Susceptibility of strain to antibiotic [5]: R
- Susceptibility of strain to antibiotic [6]: R
- Susceptibility of strain to antibiotic [7]: R

Compound: CO[C@H]1/C=C/O[C@@]2(C)Oc3c(C)c(O)c4c(O)c(c(/C=N/N5CCN(C)CC5)c(O)c4c3C2=O)NC(=O)/C(C)=C\C=C\[C@H](C)[C@H](O)[C@@H](C)[C@@H](O)[C@@H](C)[C@H](OC(C)=O)[C@@H]1C [Rifampicin]
- Susceptibility of strain to antibiotic [1]: S
- Susceptibility of strain to antibiotic [2]: S
- Susceptibility of strain to antibiotic [3]: S
- Susceptibility of strain to antibiotic [4]: S
- Susceptibility of strain to antibiotic [5]: S
- Susceptibility of strain to antibiotic [6]: R
- Susceptibility of strain to antibiotic [7]: S

Compound: CO[C@H]1/C=C/O[C@@]2(C)Oc3c(C)c(O)c4c(O)c(c5c(nc6cc(C)ccn65)c4c3C2=O)NC(=O)/C(C)=C\C=C\[C@H](C)[C@H](O)[C@@H](C)[C@@H](O)[C@@H](C)[C@H](OC(C)=O)[C@@H]1C [Rifaximin]
- MIC on C. difficile [8]: 0.08 to 0.2 µg/mL

Compound: CN(C)[C@@H]1C(O)=C(C(N)=O)C(=O)[C@@]2(O)C(O)=C3C(=O)c4c(O)cccc4[C@@](C)(O)[C@H]3C[C@@H]12 [Tetracycline]
- Susceptibility of strain to antibiotic [1]: S
- Susceptibility of strain to antibiotic [2]: S
- Susceptibility of strain to antibiotic [3]: S
- Susceptibility of strain to antibiotic [6]: R

Compound: NC[C@H]1O[C@H](O[C@H]2[C@H](O)[C@@H](O[C@H]3O[C@H](CO)[C@@H](O)[C@H](N)[C@H]3O)[C@H](N)C[C@@H]2N)[C@H](N)C[C@@H]1O [Tobramycin]
- Susceptibility of strain to antibiotic [1]: S
- Susceptibility of strain to antibiotic [2]: S
- Susceptibility of strain to antibiotic [3]: R
- Susceptibility of strain to antibiotic [4]: S
- Susceptibility of strain to antibiotic [5]: S
- Susceptibility of strain to antibiotic [6]: R
- Susceptibility of strain to antibiotic [7]: R

Compound: CN[C@H](CC(C)C)C(=O)N[C@H]1C(=O)N[C@@H](CC(N)=O)C(=O)N[C@H]2C(=O)N[C@H]3C(=O)N[C@H](C(=O)N[C@H](C(=O)O)c4cc(O)cc(O)c4-c4cc3ccc4O)[C@H](O)c3ccc(c(Cl)c3)Oc3cc2cc(c3O[C@@H]2O[C@H](CO)[C@@H](O)[C@H](O)[C@H]2O[C@H]2C[C@](C)(N)[C@H](O)[C@H](C)O2)Oc2ccc(cc2Cl)[C@H]1O [Vancomycin]
- Susceptibility of strain to antibiotic [1]: S
- Susceptibility of strain to antibiotic [2]: S
- Susceptibility of strain to antibiotic [3]: S
- Susceptibility of strain to antibiotic [4]: S
- Susceptibility of strain to antibiotic [5]: S
- Susceptibility of strain to antibiotic [6]: S
- Susceptibility of strain to antibiotic [7]: R
- MIC on C. difficile [8]: ~1 µg/mL (≈ 0.69 µM)

Compound: Co-trimoxazole
- Susceptibility of strain to antibiotic [1]: S
- Susceptibility of strain to antibiotic [2]: S
- Susceptibility of strain to antibiotic [3]: S
- Susceptibility of strain to antibiotic [4]: S
- Susceptibility of strain to antibiotic [5]: S
- Susceptibility of strain to antibiotic [6]: S
- Susceptibility of strain to antibiotic [7]: S

Compound: Gentamicin
- Susceptibility of strain to antibiotic [1]: S
- Susceptibility of strain to antibiotic [2]: S
- Susceptibility of strain to antibiotic [3]: S
- Susceptibility of strain to antibiotic [4]: S
- Susceptibility of strain to antibiotic [5]: S
- Susceptibility of strain to antibiotic [6]: R
- Susceptibility of strain to antibiotic [7]: S

Compound: Pristinamycin
- Susceptibility of strain to antibiotic [1]: S
- Susceptibility of strain to antibiotic [2]: S
- Susceptibility of strain to antibiotic [3]: S
- Susceptibility of strain to antibiotic [4]: S
- Susceptibility of strain to antibiotic [5]: S
- Susceptibility of strain to antibiotic [7]: S

Compound: Teicoplanin
- Susceptibility of strain to antibiotic [1]: S
- Susceptibility of strain to antibiotic [2]: S
- Susceptibility of strain to antibiotic [3]: S
- Susceptibility of strain to antibiotic [4]: S
- Susceptibility of strain to antibiotic [5]: S
- Susceptibility of strain to antibiotic [7]: R

From patent US20100227935A1, “CLASS OF TERPENE-DERIVED COMPOUNDS HAVING AN ANTIBIOTIC ACTIVITY, COMPOSITIONS CONTAINING THE SAME AND USES THEREOF” (Centre National De La Recherche Scientifique, priority 2006, published 2010)
